Data taken from patent publication US20120197004A1, “NOVEL ANTI-MICROBIAL PEPTIDOMIMETIC COMPOUNDS AND METHODS TO CALCULATE ANTI-MICROBIAL ACTIVITY” (priority 2006, published 2012).
Converted amounts (≈) assume the structure as drawn. Read-outs that look alike come from different tables or passages of the source. *1 amine or outer side, *2 acyl side, *3 side chain or, on linkers, in order; H or OH if unused. Where a SMILES comes first, the peptide text is derived from it. [ ]: non-standard residue; d: D form. ξ: configuration not given here. Oic = O=C(O)[C@@H]1C[C@@H]2CCCC[C@@H]2N1; Ethylenediamine = C(CN[*:2])N[*:1]; Tic = O=C(O)[C@@H]1Cc2ccccc2CN1; ξTic = O=C(O)C1Cc2ccccc2CN1; ξOic = O=C(O)C1CC2CCCCC2N1

Key:
mouse cutaneous injury = experiment: Mouse skin wound healing model; format: in vivo, CD-1 derived male mice; settings: topical once daily for 10 days; test substances 100 μg/mouse, CGS-21680 10 μg/mouse
Experimental: In-vivo assays: Selected compounds were evaluated in an in-vivo mouse skin wound healing model by MDS Pharma Services using the following protocol. Groups of CD-1 derived male mice (n=5) weighting 24±2 g were used. Under hexobarbitol (90 mg/kg, IP) anesthesia, the shoulder and back region of each animal was shaved. A sharp punch (ID 12 mm) was applied to remove the skin including panniculus carnosus and adherent tissues. […] The percent closure of the wound (%) was calculated, and wound half-closure time (CT50) was analyzed by linear regression using Graph-Prism (Graph Software USA). One-way ANOVA followed by Dunnett's test was applied for comparison between the treated and its corresponding vehicle groups at each measurement time point. Differences are considered statistically significant at P<0.05.^41

[1] = test system: Staphylococcus aureus Methicillin/Gentamicin/Tetracycline Resistant (ATCC 33592); settings: for MIC Staphylococcus aureus ME/GM/TC resistant: Minimal Inhibitory Concentration, tested at 100-0.1 in 1% DMSO; for Minimum Inhibitory Concentration Staphylococcus aureus ME/GM/TC resistant: in vitro MIC, tested at 100, 30, 10, 3, 1, 0.3 and 0.1 μM in 1% DMSO; for p(MIC) Staphylococcus aureus ME/GM/TC resistant: -log(MIC); for Actual Bioactivity: p(MIC) used in Staphylococcus aureus QSAR model
in vitro [2] = settings: human, microsomes, pH 7.4
[3] = test system: Salmonella typhimurium (ATCC 13311); settings: for MIC Salmonella typhimurium: ATCC 13311; for p(MIC) Salmonella typhimurium: -log(MIC); for Minimum Inhibitory Concentration Salmonella typhimurium: in vitro MIC
[4] = test system: Mycobacterium ranae (ATCC 110)
in vitro [5] = settings: monkey, microsomes, pH 7.4
in vitro [6] = settings: mouse, microsomes, pH 7.4
in vitro [7] = settings: dog, microsomes, pH 7.4
in vitro [8] = settings: rat, microsomes, pH 7.4
[9] = test system: Bacillus subtillis (ATCC 43223); settings: for MIC Bacillus Subtillis: ATCC 43223; for p(MIC) Bacillus Subtillis: -log(MIC)
[10] = Metabolic stability, human liver microsomes; settings: first human column (T = 15 min, head not given); 1 μM, 0.5 mg/mL microsomes

SMILES | MIC Staphylococcus aureus ME/GM/TC resistant [1] | Minimum Inhibitory Concentration Staphylococcus aureus ME/GM/TC resistant [1] | remaining at 0.25 h, 1 μM (in vitro [2]) | MIC Salmonella typhimurium [3] | MIC Mycobacterium ranae ([4]; ATCC 110) | Minimum Inhibitory Concentration Mycobacterium ranae ([4]; ATCC 110) | remaining at 0.25 h, 1 μM (in vitro [5]) | remaining at 0.5 h, 1 μM (in vitro [5]) | remaining at 1 h, 1 μM (in vitro [5]) | remaining at 0.25 h, 1 μM (in vitro [6]) | remaining at 0.5 h, 1 μM (in vitro [6]) | remaining at 1 h, 1 μM (in vitro [6]) | remaining at 0.5 h, 1 μM (in vitro [7]) | remaining at 1 h, 1 μM (in vitro [7]) | % hemolysis 100/25 μM (first value) (red blood cells) | % hemolysis 100/25 μM (second value) (red blood cells) | remaining at 0.25 h, 1 μM (in vitro [8]) | remaining at 0.5 h, 1 μM (in vitro [8]) | remaining at 1 h, 1 μM (in vitro [8]) | MIC Bacillus Subtillis [9] | other results
CCNC(=O)[C@H]1O[C@@H](n2cnc3c(N)nc(NCCc4ccc(CCC(=O)O)cc4)nc32)[C@H](O)[C@@H]1O [CGS-21680, 2-p-[2-carboxyethyl]phenethyl-amino-5′-N-ethylcarboxamide-adenosine, reference compound] |  |  |  |  |  |  |  |  |  |  |  |  |  |  |  |  |  |  |  |  | CT50 (wound half-closure time) (mouse cutaneous injury): 5.4 days; wound closure Day 3 (mouse cutaneous injury): 41.1%; wound closure Day 5 (mouse cutaneous injury): 54.6%; wound closure Day 7 (mouse cutaneous injury): 70.6%; wound closure Day 9 (mouse cutaneous injury): 77.6%; wound closure Day 11 (mouse cutaneous injury): 84.3%
CC(=O)NCC(=O)N[C@@H](Cc1ccccc1)C(=O)N1Cc2ccccc2CC1C(=O)N1C(C(=O)NCC(=O)N[C@@H](CCCCN)C(=O)N2Cc3ccccc3CC2C(=O)N2C(C(=O)NCC(=O)N[C@@H](Cc3ccccc3)C(=O)N3Cc4ccccc4CC3C(=O)N3C(C(=O)NCC(=O)N[C@@H](CCCCN)C(=O)N4Cc5ccccc5CC4C(=O)N[C@@H](CCCCN)C(=O)N[C@@H](CCCCN)C(=O)N[C@@H](CCCCN)C(=O)N[C@@H](CCCCN)C(=O)N[C@@H](CCCCN)C(N)=O)CC4CCCCC43)CC3CCCCC32)CC2CCCCC21 (stereo partly drawn) [FKAB-1Gi, Ac-GF-Tic-Oic-GK-Tic-Oic-GF-Tic-Oic-GK-Tic-KKKKK-CONH2] (Ac-GF[ξTic][ξOic]GK[ξTic][ξOic]GF[ξTic][ξOic]GK[ξTic]KKKKK-NH2) | 3.00 µM (≈ 7.71 µg/mL) | 3 µM | 86% | 10 µM (≈ 25.7 µg/mL) | 3.00 µM (≈ 7.71 µg/mL) | 3 µM | 72% | 75% | 99% | 77% | 26% | 15% | 63% | 79% | 24.9%/ | 18.9% | 76% | 86% | 87% | 1.00 µM (≈ 2.57 µg/mL) | 
CC(=O)N[C@@H](Cc1ccccc1)C(=O)N1Cc2ccccc2CC1C(=O)N1C(C(=O)N[C@@H](CCCCN)C(=O)N2Cc3ccccc3CC2C(=O)N2C(C(=O)N[C@@H](Cc3ccccc3)C(=O)N3Cc4ccccc4CC3C(=O)N3C(C(=O)N[C@@H](CCCCN)C(=O)N4Cc5ccccc5CC4C(=O)N[C@@H](CCCCN)C(=O)N[C@@H](CCCCN)C(=O)N[C@@H](CCCCN)C(=O)N[C@@H](CCCCN)C(N)=O)CC4CCCCC43)CC3CCCCC32)CC2CCCCC21 (stereo partly drawn) [FKAB-1Gc, Ac-F-Tic-Oic-K-Tic-Oic-F-Tic-Oic-K-Tic-KKKK-CONH2] (Ac-F[ξTic][ξOic]K[ξTic][ξOic]F[ξTic][ξOic]K[ξTic]KKKK-NH2) | 3.00 µM (≈ 6.64 µg/mL) | 3 µM |  | 10 µM (≈ 22.1 µg/mL) | 30.00 µM (≈ 66.4 µg/mL) | 30 µM | 17% | 24% | 75% | 86% | 10% | 7% | 14% | 46% | 86.8%/ | 50% | 73% | 80% | 107% | 1.00 µM (≈ 2.21 µg/mL) | 
CC(=O)CC(c1ccccc1)c1c(O)c2ccccc2oc1=O (stereo not drawn) [Warfarin, warfarin, reference compound] |  |  |  |  |  |  | 113% | 109% | 81% | 86% | 111% | 110% | 104% | 94% |  |  | 93% | 97% | 84% |  | remaining at 0.5 h, 1 μM (in vitro [2]): 97%; remaining at 1 h, 1 μM (in vitro [2]): 97%; % remaining at time T, Human Liver [10]: 100%; remaining at 0.25 h, 1 μM (in vitro [7]): 109%
CC(C)NCC(O)COc1cccc2ccccc12 (stereo not drawn) [Propranolol, propranolol, reference compound] |  |  | 97% |  |  |  | 34% | 9% | 0.5% | 9% | 9% | 4% | 51% | 24% |  |  | 0.1% | 0.1% | 0.1% |  | remaining at 0.5 h, 1 μM (in vitro [2]): 86%; remaining at 1 h, 1 μM (in vitro [2]): 72%; remaining at 0.25 h, 1 μM (in vitro [7]): 76%
CC(=O)NCC(=O)N[C@@H](Cc1ccccc1)C(=O)N1Cc2ccccc2C[C@H]1C(=O)N1[C@H](C(=O)NCC(=O)N[C@@H](CCCCN)C(=O)N2Cc3ccccc3C[C@H]2C(=O)N2[C@H](C(=O)NCC(=O)N[C@@H](Cc3ccccc3)C(=O)N3Cc4ccccc4C[C@H]3C(=O)N3[C@H](C(=O)NCC(=O)N[C@@H](CCCCN)C(=O)N4Cc5ccccc5C[C@H]4C(=O)N[C@@H](CCCCN)C(=O)N[C@@H](CCCCN)C(=O)N[C@@H](CCCCN)C(=O)N[C@@H](CCCCN)C(=O)NCCN)C[C@@H]4CCCC[C@@H]43)C[C@@H]3CCCC[C@@H]32)C[C@@H]2CCCC[C@@H]21 [FKAB-1H, Ac-GF-Tic-Oic-GK-Tic-Oic-GF-Tic-Oic-GK-Tic-KKKK-CONH—CH2—CH2—NH2] (Ac-GF[Tic][Oic]GK[Tic][Oic]GF[Tic][Oic]GK[Tic]KKKK-Ethylenediamine) | 3.00 µM (≈ 7.45 µg/mL) | 3 µM | 34% | 10 µM (≈ 24.8 µg/mL) | 10.00 µM (≈ 24.8 µg/mL) | 10 µM | 0% | 0% | 0% | 0% | 62% | 73% |  |  |  |  |  |  |  | 1.00 µM (≈ 2.48 µg/mL) | p(MIC) Staphylococcus aureus ME/GM/TC resistant [1]: 5.52; Actual Bioactivity [1]: 5.520; p(MIC) Salmonella typhimurium [3]: 5.00; Actual Bioactivity [4]: 5.000; p(MIC) Bacillus Subtillis [9]: 6.00
CC(=O)NCC(=O)N[C@@H](Cc1ccccc1)C(=O)N[C@@H](Cc1ccccc1)C(=O)N1C(C(=O)NCC(=O)N[C@@H](CCCCN)C(=O)N[C@@H](Cc2ccccc2)C(=O)N2C(C(=O)NCC(=O)N[C@@H](Cc3ccccc3)C(=O)N[C@@H](Cc3ccccc3)C(=O)N3C(C(=O)NCC(=O)N[C@@H](CCCCN)C(=O)N[C@@H](Cc4ccccc4)C(=O)N[C@@H](CCCCN)C(=O)N[C@@H](CCCCN)C(=O)N[C@@H](CCCCN)C(=O)N[C@@H](CCCCN)C(N)=O)CC4CCCCC43)CC3CCCCC32)CC2CCCCC21 (stereo partly drawn) [FKAB-1Gh, Ac-GF-F-Oic-GK-F-Oic-GF-F-Oic-GK-F-KKKK-CONH2] (Ac-GFF[ξOic]GKF[ξOic]GFF[ξOic]GKFKKKK-NH2) | 10.00 µM (≈ 23.9 µg/mL) | 10 µM | 92% | 10 µM (≈ 23.9 µg/mL) | 10.00 µM (≈ 23.9 µg/mL) | 10 µM |  |  |  | 36% | 71% | 112% | 103% | 60% | 27.30%/ | 8.9% |  |  | 0% | 1.00 µM (≈ 2.39 µg/mL) | 
CC(=O)NCC(=O)N[C@@H](Cc1ccccc1)C(=O)N1[C@H](C(=O)NCC(=O)N[C@@H](CCCCN)C(=O)N2[C@H](C(=O)NCC(=O)N[C@@H](Cc3ccccc3)C(=O)N3[C@H](C(=O)NCC(=O)N[C@@H](CCCCN)C(=O)N[C@@H](CCCCN)C(=O)N[C@@H](CCCCN)C(=O)N[C@@H](CCCCN)C(=O)N[C@@H](CCCCN)C(N)=O)C[C@@H]4CCCC[C@@H]43)C[C@@H]3CCCC[C@@H]32)C[C@@H]2CCCC[C@@H]21 [FKAB-1Gf, Ac-GF-Oic-GK-Oic-GF-Oic-GKKKKK-CONH2] (Ac-GF[Oic]GK[Oic]GF[Oic]GKKKKK-NH2) |  |  |  | 100 µM (≈ 180 µg/mL) | 100.00 µM (≈ 180 µg/mL) |  |  |  |  |  |  |  |  |  | 5.9%/ | 3.2% |  |  |  | 3.00 µM (≈ 5.41 µg/mL) | p(MIC) Staphylococcus aureus ME/GM/TC resistant [1]: 0.00; Actual Bioactivity [1]: 0.000; p(MIC) Salmonella typhimurium [3]: 4.00; Minimum Inhibitory Concentration Salmonella typhimurium [3]: 180 µg/mL; Minimum Inhibitory Concentration Salmonella typhimurium ([3]; tested at 100, 30, 10, 3, 1, 0.3 and 0.1 μM in 1% DMSO): 100 µM; Actual Bioactivity [4]: 4.000; Minimum Inhibitory Concentration Mycobacterium ranae [4]: 100 μM/180 μg/mL; % hemolysis 100/25 μM (first value) (red blood cells; 100 μM): 5.9%; p(MIC) Bacillus Subtillis [9]: 5.52; Minimum Inhibitory Concentration Bacillus subtillis ([9]; in vitro MIC): 5.4 µg/mL
